From patent US5856115A, “Assay for identification therapeutic agents” (priority 1994, dated 1999)

Columns and labels:
[1] = tested on: lyso-PA acyl transferase (LPAAT); assay: Inhibition of LPAAT shown by the invention assay; format: cell-based, human
Method: (§1) This example also illustrates the method of the invention.
(§2) Human glomerular mesangial cells were incubated with IL-1 for various time periods of 5-60 seconds and the cells were fixed in ice-cold methanol, and the lipids extracted using chloroform:methanol 2:1 (v/v). It is very important that the fixing/extraction process be conducted quickly so that the decomposition of unstable intermediates is halted.
(§3) The extracts were subjected to HPLC on a Rainin mu-Porasil column with a 3:4 hexane:propanol organic carrier and a 1-10% water gradient during the first 10 minutes of separation. The relative concentration of each lipid species is determined using absorption at 206 nm (A206), which follows unsaturated acyl content of lipid species. […] The absolute mass of each lipid species is determined by isolation of the lipid using a fraction collector, repurification on the HPLC column. Determination of phospholipid phosphorus is as nmoles/mg cellular protein. Protein concentration is determined using the Bradford technique.
(§4) Thus, the lyso PA that accumulates contains high levels of unsaturated fatty acids. Pentoxifylline in a dose range greater than 500 μM results in inhibition both of phosphatidate phosphohydrolase and of lyso PA acyl transferase.

[2] = tested on: phosphatidic acid phosphohydrolase (PAPH); assay: Inhibition of PAPH shown by the invention assay; format: cell-based, human
Method: as §1, §2, §3, §4

[3] = tested on: NIH3T3 cell line (D5C3) transformed with temperature-sensitive v-abl; assay: Blocking transformed phenotype of D5C3 cells; format: cell-based, murine
[4] = tested on: Human glomerular mesangial cells stimulated with IL-1; assay: Invention assay: HPLC of lipids (PA, DAG) from mesangial cells stimulated with IL-1; format: cell-based
Method: The compounds of Formula I are shown to modulate the effects of primary stimuli which elevate levels of the relevant subspecies of PA and DAG using the assay system of the invention. In general for the assay, the cells to be tested are first incubated with the primary stimulating agent for various time periods and fixed in ice-cold methanol. The lipids are extracted using, for example, chloroform:methanol 2:1 (v/v), and the extracts are then subjected to HPLC as described by Bursten and Harris, Biochemistry (1991). In this method, a Rainin mu-Porasil column is used with a 3:4 hexane:propanol organic carrier and a 1-10% water gradient during the first 10 minutes of separation. Detection of the peaks in the elution pattern is by absorption in the range of ultraviolet which detects isolated double bonds. Thus, the relevant peaks of unsaturated PA and DAG are shown in the elution pattern. It is important to note that the assay method permits discrimination between various forms of PA and DAG so that those relevant to the pathway affected by the compounds of Formula I can be measured directly. Confirmation of the nature of the acyl substituents of these components is accomplished using fast-atom bombardment mass spectroscopy. Thus, the relevant unsaturated (non-arachidonic) PA and DAG subspecies may be detected. The time periods employed are 5-60 seconds after stimulation with the primary stimulus, such as a cytokine. This technique permits assessment of the levels of various lipid components as a function of time.
To test the effect of the compounds of the invention, the candidate compound is included in the initial incubation at various concentrations. Fixing, extraction and HPLC are conducted as above. The effect of the candidate compound is then reflected in a lowering of the relevant PA and DAG levels as compared to the cells without candidate in the control as illustrated hereinbelow.
as §2, §3
After contacting HMC with 10^-11 M interleukin-1, a marked redistribution of phospholipids and metabolites is apparent within 5 seconds (FIG. 2), including a significant increase in PA and DAG. FIGS. 3 and 4 show the HPLC after stimulation with IL-1 for 15 seconds and 60 seconds, respectively. PA has been converted into DAG by action of phosphatidate phosphohydrolase at 15 seconds; but the PA peak reappears after 60 seconds.
The HMC were also reacted with 10^-11 M IL-1 in the presence of various concentrations of pentoxifylline. […] A large peak representing pentoxifylline is present.

[5] = tested on: NIH3T3 murine fibroblast cells transformed with a mutated K-ras; assay: Growth and soft agar colonies of K-ras transformed NIH3T3 cells in vitro; format: cell-based; details: concentrations at or greater than 0.5 mM
Method: Additionally, NIH3T3 murine fibroblast cells transformed with a mutated K-ras (codon 12 Gly-Val) were tested in vitro and in nude mice.

[6] = tested on: SV40 T-antigen-transformed human kidney mesangial cells; assay: Tritiated thymidine uptake of transformed mesangial cells with rhIL-1 or TNFα; format: cell-based
Method: SV40 T-antigen-transformed human kidney mesangial cells were cultured under standard conditions with rhIL-1 or with TNFα with and without pentoxifylline (PTX). Transformed mesangial cells grow independently of added growth factors, but IL-1 and TNFα are the normal proliferative signals for mesangial cells. As was shown in Example 1, when IL-1 is added to kidney mesangial cells, within 30 seconds LPAAT and PAPH are activated; the effect of both of these enzymes is inhibited by pentoxifylline at 1 mM. In this experiment, the growth of the treated cells was measured using tritiated thymidine uptake.

[7] = tested on: human leukemic cell line (Mo7e); assay: GM-CSF stimulated colony formation of Mo7e cells; format: cell-based; details: semisolid medium, colonies counted after 10 days
Method: The human leukemic cell line (Mo7e) is dependent on added granulocyte-macrophage colony-stimulating factor (GM-CSF) for growth. Mo7e cells were cultured in semisolid medium with and without pentoxifylline (PTX) and rhGM-CSF. Colonies were counted 10 days after culture initiation under an inverted microscope. […] PTX thus prevents the up-regulation of activation-associated genes which inhibit proliferation.

[8] = tested on: TNFα transcripts in U937 cells; assay: Northern blot of TNFα transcripts in LPS-induced U937 cells; format: cell-based; details: 1 mM PTX, LPS three hours
[9] = tested on: IL-6 transcripts in bone marrow stromal cells; assay: Northern blot of IL-6 transcripts in bone marrow stromal cells; format: cell-based; details: three-hour exposure, increasing concentrations
[10] = tested on: Steel factor transcripts in marrow stromal cell lines; assay: Northern blot of Steel factor transcripts in marrow stromal cell lines; format: cell-based; details: three-hour incubation, passaged or cloned (CDCL) lines
CD3-positive lymphocytes = assay: Proliferation and transcripts of anti-CD3 stimulated lymphocytes; format: cell-based
Method: In these experiments, freshly isolated, CD2-positive cells were stimulated by a solid-phase monoclonal antibody to acquire a CD3 phenotype, and then PTX was added. […] The block in proliferation could not be overcome by addition of either tumor necrosis factor (FIGS. 20 and 21) or IL-1 (FIG. 21). […] The cytokines and PTX were added at culture inception and the cells were harvested after 5 days.

[11] = tested on: IL-8 mRNA in U937 and THP1; assay: Northern blot of IL-8 mRNA in monocytic cell lines induced by lipopolysaccharide or GM-CSF; format: cell-based
Method: The murine fibrosarcoma cell line, L929, was also tested as an indicator for assays of TNF cytotoxicity. Cell growth was assayed by crystal violet staining using optical density as a measure of growth. […] Finally, two monocytic cell lines, U937 and THP1, were used to test the effect of pentoxifylline on the […] of the cytokine IL-8. The cell lines in culture were induced to upregulate IL-8 production by lipopolysaccharide or GM-CSF.

T cell proliferation = details: Singer et al., cited from earlier work
[12] = tested on: patients undergoing allogeneic bone marrow transplant; assay: Preliminary study in allogeneic bone marrow transplant patients; format: in vivo, human; details: first 30 days post-transplant
Method: A preliminary study was conducted on patients undergoing allogeneic bone marrow transplant for multiple myeloma, for lymphoid malignancies, or for advanced stage CML or AML. Prednisone is often administered as an immunosuppressant in all experimental groups. In the study, these patients received the drugs for a minimum of 3 days to a maximum of 7 days prior to starting their preparative regimen while in the outpatient department according to the following regimen:
PTX: 600 mg p.o. qid at 9 am, 1 pm, 5 pm and 9 pm;
CIPRO: 500 mg p.o.b.i.d.; and
PD: 0.5 mg/kg b.i.d. (total 1 mg/kg/day changed to methylprednisolone at an equivalent dose starting on day-1).
For the duration of therapy, the patients are continued on the study drugs as follows:
PTX: until day +20 post-transplant then tapered 600 mg/day until off;
CIPRO: until day 30 post-transplant or day of discharge if sooner than day 30; and
PD: tapered starting on day 0 over 14 days until off.
All patients in these studies received PD and cyclosporin as GVHD prophylaxis.

[13] = tested on: recipients of matched allogeneic donor marrow; assay: Matched allogeneic donor trial; format: in vivo, human
Source text: (§5) They are given steroids to reduce inflammation. […] In this group of patients, GVHD approaches 90%.
Again, engraftment was improved, toxicity diminished and survival improved as compared either to standard treatment or to treatment with GM-CSF.

[14] = tested on: recipients of marrow from unrelated donors; assay: Unrelated donor trial; format: in vivo, human
Source text: as §5
Again, the general results were improved as compared to either standard therapy or GM-CSF.

[15] = day 0-28, median (mean ± standard deviation)
[16] = days 0-28, median (mean ± standard deviation)
[17] = median (mean ± standard deviation)

C[C@@H](O)CCCCn1c(=O)c2c(ncn2C)n(C)c1=O [CT1501 R]
block of lyso-PA AT [1]: blocks | block of Ptd Phydr [2]: blocks

O=C(O)c1cn(C2CC2)c2cc(N3CCNCC3)c(F)cc2c1=O [Ciprofloxacin]
inhibition of the transformed phenotype ([3]; ciprofloxacin 50 μg/ml, pentoxifylline 1 mM): significant effect

CC(=O)CCCCn1c(=O)c2c(ncn2C)n(C)c1=O [Pentoxifylline]
elevation of PA and DAG by IL-1 ([4]; 1 mM, all time points (15-60 seconds)): abolishes | cyclical formation of PA, and conversion of PA to DAG ([4]; 10^-11 M IL-1, 100 μM pentoxifylline, 15- and 60-second points): no change | conversion of PA to DAG ([4]; 10^-11 M IL-1, 500 μM pentoxifylline, 15 second time point): slight attenuation | elevation in levels of unsaturated, non-arachidonic PA and of the DAG derived from it ([4]; IL-1 stimulation, concentrations greater than 500 μM): obviate | LPAAT activated by IL-1 ([1]; 1 mM): inhibited | inhibition of lyso PA acyl transferase ([1]; dose range greater than 500 μM): inhibition | inhibitory effect on LPAAT ([1]; relative to 0.5 mM): evident only at higher concentrations | PAPH activated by IL-1 ([2]; 1 mM): inhibited | inhibition of phosphatidate phosphohydrolase ([2]; dose range greater than 500 μM): inhibition | appearance of cells ([3]; 1 mM, 33° C., 5 days): predominantly non-transformed, fibroblastic appearance | growth ([5]; in vitro): inhibition of growth | anchorage-independent growth ([5]; soft agar): suppression | growth stimulated by IL-1 ([6]; FIG. 13A): arrested growth | proliferative effect of TNF ([6]; FIG. 13B): enhances | GM-CSF-stimulated growth of colonies [7]: enhanced | TNF RNA obtained in response to LPS stimulation [8]: undetectable level | production of IL-6 transcripts [9]: increased production | levels of Steel factor transcripts [10]: increases | thymidine uptake (CD3-positive lymphocytes; CD2-positive T-cells, monoclonal antibody 64.1, 5 days, FIG. 21): diminished | TNF transcripts (CD3-positive lymphocytes; Northern blot, FIG. 19A): suppression | IL-2 receptor transcripts (CD3-positive lymphocytes; Northern blot, FIG. 19C): suppression | synthesis of IL-8 (mRNA) [11]: did not inhibit | expression of cell surface antigens (HLA-DR, CD71, CD25, CD69) (T cell proliferation; MLR-stimulated lymphocytes): decreased | blocking a proliferative response (T cell proliferation; PTX added after triggering lymphocytes in a mixed lymphocyte culture): still effective

Cc1nc2sccn2c(=O)c1CCN1CCC(=C(c2ccccc2)c2ccc(F)cc2)CC1 [R 50922]
HPLC pattern (reappearance of PA after 60 seconds) ([4]; IL-1 stimulation): does not alter

GM-CSF: granulocyte-macrophage colony-stimulating factor
platelet transfusion requirements [12]: 87±69 units of platelets | red blood cell requirements [12]: 24.7±24 units of RBCs | Day 100 Survival [13]: 69% | Max Creat [13, 15]: 1.5 (1.8 ± 1.4) mg/dL | Units platelets transfused [13, 15]: 74.0 (87 ± 74) units | Bili ≥5.0 mg/dL (patients) ([13]; days 0-28): 44% | Creat ≥2.0 mg/dL (patients) ([13]; days 0-28): 22% | Infection 0-28 (patients with positive bacterial blood cultures) ([13]; days 0-28): 14% | Max Bili [13, 16]: 5.0 (8 ± 10) mg/dL | ANC ≤100 (days below 100 cells/uL) [13, 17]: 5.0 (6 ± 4) days | ANC ≥100 (day on which ANC ≥100 cells/uL on two consecutive days) [13, 17]: 9.0 (8 ± 6) day | ANC ≥1,000 (day on which ANC ≥1,000 cells/uL on two consecutive days) [13, 17]: 14.0 (16 ± 9) day | Day discharge [13, 17]: 24.0 (26 ± 13) day | Last RBC day (first day RBC count ≥30% for 7 consecutive days untransfused) [13, 17]: 59.0 (63 ± 39) day | Last plt day [13, 17]: 23.0 (17 ± 11) day | Max Creat [14, 15]: 1.1 (1.4 ± 1.2) mg/dL | Units platelets transfused [14, 15]: 92.0 (90 ± 42) units | Bili ≥5.0 mg/dL (patients) ([14]; days 0-28): 46% | Creat ≥2.0 mg/dL (patients) ([14]; days 0-28): 17% | Infection 0-28 ([14]; days 0-28): 7% | Max Bili [14, 16]: 5.5 (7 ± 7) mg/dL | ANC ≤100 (days below 100 cells/uL) [14, 17]: 12 (12 ± 7) days | ANC ≥100 [14, 17]: 18.5 (18 ± 6) day | ANC ≥500 [14, 17]: 22.5 (23 ± 4) day | ANC ≥1,000 [14, 17]: 26.0 (26 ± 5) day | Day initial discharge [14, 17]: 37.0 (37 ± 14) day | Last plt day [14, 17]: 24.5 (26 ± 6) day
